Where two headings read alike, the source gives them in different places.
How the values were obtained:
[1] = tested on: Neurosphere cells (TS603); assay: Cellular assay for IDH1m R132H inhibitors, 2-HG by LC-MS in neurosphere cells (TS603); format: cell-based; conditions: 2-HG in media at 48 hours
Procedure, shortened: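 TS603 neurosphere cells in NeuroCult medium were dosed with compound (0.25% DMSO final) at 37 C, 5% CO2. After 48 hours, medium 2-HG was measured by LC-MS. At 72 hours, viability was read by CellTiter-Glo luminescence.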

IDH2 R140Q = IDH2 R140Q (Homo sapiens (Human), UniProt P48735, R140Q); assay: In vitro assay for IDH2m R140Q inhibitors, cofactor depletion assay; format: biochemical; conditions: IDH2 R140Q enzyme
Procedure, shortened: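 Remaining cofactor measured fluorimetrically: diaphorase/resazurin Stop Mix […], halting the reaction. Before that, mutant enzyme and compound sat 1 h at RT, then substrate mix (4 μM NADPH, 1.6 mM α-KG) was added for 16 h at RT.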

[2] = molecular target: IDH1-R132H homodimer enzyme (Homo sapiens (Human), UniProt O75874, R132H); assay: In vitro assay IDH1-R132H homodimer, NADPH depletion assay with NADPH/NADP preincubation; format: biochemical; conditions: 5 μM NADPH and 37.5 μM NADP
Description: The following describes the experimental procedures that can be used to obtain data on columns 3 and 5 of Table 5.
A test compound is prepared as 10 mM stock in DMSO and diluted to 50× final concentration in DMSO, for a 50 μl reaction mixture. IDH enzyme activity converting alpha-ketoglutarate to 2-hydroxyglutaric acid is measured using a NADPH depletion assay. In the assay the remaining cofactor is measured at the end of the reaction with the addition of a catalytic excess of diaphorase and resazurin, to generate a fluorescent signal in proportion to the amount of NADPH remaining. […] The reaction is started with the addition of 10 μl of Substrate Mix ([…], 5 mM alpha-ketoglutarate, in Assay Buffer) and the mixture is incubated for 60 minutes at room temperature.

[3] = molecular target: IDH1 wt/IDH1 R132H heterodimer (Homo sapiens (Human), UniProt O75874, R132H); assay: In vitro assay for IDH1m R132H inhibitors, IDH1 wt/IDH1 R132H heterodimer, NADPH depletion (diaphorase/resazurin); format: biochemical
Procedure, shortened: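 Purified IDH1wt-his/IDH1R132H-flag heterodimer (sf9 co-expression) pre-incubated 1 hr at room temperature with compound and NADPH before α-KG addition. Remaining NADPH read by diaphorase/resazurin conversion to fluorescent resorufin, 5 min at 25° C. Compounds diluted 1:50 from DMSO; IC50 determined.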

HT1080 cells = assay: Cellular assay for IDH1m R132C inhibitors, 2-HG by LC-MS in HT1080 cells; format: cell-based; conditions: Homo sapiens, HT-1080
Description: The following describes the experimental procedures that can be used to obtain data on column 5 of Table 4.
Cells (HT1080 or U87MG) are grown in T125 flasks in DMEM containing 10% FBS, 1× penicillin/streptomycin and 500 ug/mL G418 (present in U87MG cells only). They are harvested by trypsin and seeded into 96 well white bottom plates at a density of 5000 cell/well in 100 ul/well in DMEM with 10% FBS. No cells are placed in columns 1 and 12. Cells are incubated overnight at 37° C. in 5% CO2. The next day test compounds are made up at 2× the final concentration and 100 ul are added to each cell well. The final concentration of DMSO is 0.2% and the DMSO control wells are plated in row G. The plates are then placed in the incubator for 48 hours. At 48 hours, 100 ul of media is removed from each well and analyzed by LC-MS for 2-HG concentrations. The cell plate is placed back in the incubator for another 24 hours. At 72 hours post compound addition, 10 mL/plate of Promega Cell Titer Glo reagent is thawed and mixed. The cell plate is removed from the incubator and allowed to equilibrate to room temperature. Then 100 ul of Promega Cell Titer Glo reagent is added to each well of media. The cell plate is then placed on an orbital shaker for 10 minutes and then allowed to sit at room temperature for 20 minutes. The plate is then read for luminescence with an integration time of 500 ms.
HT1080 cells are maintained in RPMI containing 10% FBS, 1× penicillin/streptomycin. […] The next day compounds are prepared in 100% DMSO and then diluted in media for a final concentration of 0.2% DMSO. Media is removed from the cell plates and 200 μL of the compound dilutions are added to each well. […] The cell plates are then allowed to incubate another 24 hours.

[4] = tested on: U87MG pLVX-IDH2 R140Q-neo cells; assay: U87MG pLVX-IDH2 R140Q-neo cell based assay, 2-HG by LC-MS; conditions: Homo sapiens, U-87 MG
[5] = IDH1 wt/R132H heterodimer, NADPH/NADP, not saturated, read-out: IDH1 wt/R132H NADPH/NADP IC50 not saturated

Chain of IDH2 R140Q (P48735 40-452 R140Q): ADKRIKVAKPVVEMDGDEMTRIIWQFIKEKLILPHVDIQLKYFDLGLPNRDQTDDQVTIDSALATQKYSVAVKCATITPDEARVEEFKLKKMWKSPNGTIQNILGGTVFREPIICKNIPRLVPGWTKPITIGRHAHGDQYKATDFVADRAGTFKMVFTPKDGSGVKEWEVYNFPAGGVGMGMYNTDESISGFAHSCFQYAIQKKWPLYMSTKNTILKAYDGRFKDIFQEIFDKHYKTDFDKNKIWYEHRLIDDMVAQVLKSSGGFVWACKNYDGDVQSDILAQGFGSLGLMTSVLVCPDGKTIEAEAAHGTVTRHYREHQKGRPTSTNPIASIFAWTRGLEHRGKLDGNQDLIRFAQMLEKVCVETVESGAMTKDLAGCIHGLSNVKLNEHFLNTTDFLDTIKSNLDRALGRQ
Chain of IDH1-R132H homodimer enzyme (O75874 whole entry R132H): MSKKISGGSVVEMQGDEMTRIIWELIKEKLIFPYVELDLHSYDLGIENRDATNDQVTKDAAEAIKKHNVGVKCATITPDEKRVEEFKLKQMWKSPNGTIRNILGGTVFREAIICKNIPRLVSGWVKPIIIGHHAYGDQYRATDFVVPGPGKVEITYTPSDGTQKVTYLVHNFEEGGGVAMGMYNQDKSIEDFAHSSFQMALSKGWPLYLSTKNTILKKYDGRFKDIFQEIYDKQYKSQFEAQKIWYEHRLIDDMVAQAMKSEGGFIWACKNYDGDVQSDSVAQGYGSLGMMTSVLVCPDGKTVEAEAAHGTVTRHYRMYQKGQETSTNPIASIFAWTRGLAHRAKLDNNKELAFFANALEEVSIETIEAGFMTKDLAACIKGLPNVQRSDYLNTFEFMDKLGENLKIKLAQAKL
Chain of IDH1 wt/IDH1 R132H heterodimer (O75874 whole entry R132H): as above
Chain of IDH1 wt/IDH1 R132H heterodimer (O75874 whole entry, stated change not applied): as the sequence (O75874 whole entry R132H) above, with H132R counted along it

| Compound | IC50 [1] | IC50 (IDH2 R140Q) | IC50 [2] | IC50 [3, 5] | IC50 (HT1080 cells) | IC50 [4] | IC50 ([3]; IDH1 wt/IDH1 R132H heterodimer, 300 μM NADP (saturated), read-out: IDH1 wt/R132H NADPH/NADP IC50 saturated) |
| --- | --- | --- | --- | --- | --- | --- | --- |
| C[C@@H](Nc1nc(NC(C(F)(F)F)C(F)(F)F)nc(-c2cccc(Cl)n2)n1)C(F)(F)F [Compound 100] | < 50 nM | < 50 nM | < 50 nM | < 50 nM | < 50 nM | – | – |
| FC1(F)CC[C@@H](Nc2nc(N[C@H]3CCC(F)(F)C3)nc(-c3cccc(C(F)(F)F)n3)n2)C1 [Compound 102] | < 50 nM | < 50 nM | < 50 nM | < 50 nM | < 50 nM | < 50 nM | – |
| CCC(Nc1nc(NC(CC)C(F)(F)F)nc(-c2cccc(Cl)n2)n1)C(F)(F)F (stereo not drawn) [Compound 103] | < 50 nM | < 50 nM | < 50 nM | < 50 nM | < 50 nM | < 50 nM | – |
| CC[C@@H](Nc1nc(N[C@H](CC)C(F)(F)F)nc(-c2cccc(Cl)n2)n1)C(F)(F)F [Compound 104] | – | < 50 nM | < 50 nM | < 50 nM | < 50 nM | < 50 nM | – |
| CC(Nc1nc(Nc2cc(F)cc(F)c2)nc(-n2ccc(C(F)(F)F)n2)n1)C(F)(F)F (stereo not drawn) [Compound 107] | < 50 nM | < 50 nM | < 50 nM | < 50 nM | 100 to 1000 nM | < 50 nM | – |
| Fc1cc(F)cc(Nc2nc(NC3CCC(F)(F)C3)nc(-n3ccc(C(F)(F)F)n3)n2)c1 (stereo not drawn) [Compound 108] | < 50 nM | < 50 nM | < 50 nM | < 50 nM | 50 to 100 nM | < 50 nM | – |
| FC1(F)CC[C@@H](Nc2nc(N[C@@H]3CCC(F)(F)C3)nc(-c3cccc(C(F)(F)F)n3)n2)C1 [Compound 111] | < 50 nM | < 50 nM | < 50 nM | < 50 nM | < 50 nM | < 50 nM | – |
| N#Cc1cc(F)cc(Nc2nc(NC3CCC(F)(F)C3)nc(-n3ccc(C(F)(F)F)n3)n2)c1 (stereo not drawn) [Compound 112] | < 50 nM | < 50 nM | < 50 nM | < 50 nM | 100 to 1000 nM | < 50 nM | – |
| FC1(F)CC[C@@H](Nc2nc(Nc3ccnc(C(F)(F)F)c3)nc(-c3cncc(C(F)(F)F)n3)n2)C1 [Compound 116] | < 50 nM | < 50 nM | < 50 nM | < 50 nM | 100 to 1000 nM | < 50 nM | < 50 nM |
| Nc1ccc(F)c(-c2nc(Nc3cc(F)cc(F)c3)nc(NC3CCC(F)(F)C3)n2)n1 (stereo not drawn) [Compound 153] | – | < 50 nM | < 50 nM | < 50 nM | 50 to 100 nM | < 50 nM | – |
| CC(C)(O)CNc1nc(Nc2cc(F)cc(Cl)c2)nc(-c2cccc(C(C)(F)F)n2)n1 [Compound 236] | – | < 50 nM | 100 to 1000 nM | < 50 nM | > 1000 nM | < 50 nM | – |
| FC1(F)CCC(Nc2nc(NC3CN(c4ccccn4)C3)nc(-c3cccc(C(F)(F)F)n3)n2)C1 (stereo not drawn) [Compound 238] | < 50 nM | – | 100 to 1000 nM | < 50 nM | 100 to 1000 nM | – | – |
| O=C1C[C@H](Nc2nc(NC3CCC(F)(F)C3)nc(-c3cccc(C(F)(F)F)n3)n2)CN1c1ccccn1 (stereo partly drawn) [Compound 239] | < 50 nM | – | 100 to 1000 nM | < 50 nM | 100 to 1000 nM | – | – |
| FC1(F)CCC(Nc2nc(NC3CN(c4cccnc4)C3)nc(-c3cccc(C(F)(F)F)n3)n2)C1 (stereo not drawn) [Compound 243] | < 50 nM | – | > 1000 nM | 50 to 100 nM | 100 to 1000 nM | – | – |
| CC(C)(O)CNc1nc(NC2CCC(F)(F)C2)nc(-c2cccc(C(F)(F)F)n2)n1 (stereo not drawn) [Compound 264] | 50 to 100 nM | – | 100 to 1000 nM | 100 to 1000 nM | 100 to 1000 nM | – | – |
| CC(C)(O)CNc1nc(NC2CCC(F)(F)CC2)nc(-c2cccc(C(F)(F)F)n2)n1 [Compound 287] | – | 100 to 1000 nM | > 1000 nM | 100 to 1000 nM | > 1000 nM | 100 to 1000 nM | – |
